Reference: article PMC11514314, “The aquastatin biosynthetic gene cluster encodes a versatile polyketide synthase capable of synthesising heteromeric depsides with diverse alkyl side chains” (Chemical Science, 2024)
Converted amounts (≈) assume the structure as drawn. Read-outs that look alike come from different tables or passages of the source.

What was measured:
[1] = tested on: NFF (ATCC PCS-201) human neonatal foreskin fibroblast cells; assay: Cytotoxicity resazurin assay, NFF cells; type: cell-based; conditions: for IC50: Homo sapiens, 96 h, read-out: IC50 NFF
Description: (§1) 12. Bioactivity screening.
(§2) Purified metabolites were dissolved in DMSO to create stock solutions of 10,000 µg/mL. An aliquot from each stock solution was transferred to the first well of Rows B to G on a 96-well microtitre plate and then serially diluted two-fold with DMSO across the 12 wells of the plate to achieve a 2,048-fold concentration gradient. Bioassay medium was added to an aliquot of each diluted solution to achieve a 100-fold dilution in the final bioassay. This […]
(§3) 0.1 µg/mL in 2% DMSO for yeasts. Row A served as a control with no test compound (indicating no inhibition), and Row H was left uninoculated (serving as a control for complete inhibition). […]
(§4) MIC endpoints were determined visually. Absorbance was measured using a Multiskan Skyhigh […]
as §4
(§5) NS-1 (ATCC TIB-18) mouse myeloma and NFF (ATCC PCS -201) human neonatal foreskin fibroblast cells were each inoculated in 96-well microtitre plates (190 µL) at 50,000 cells/mL in DMEM (Dulbecco's Modified Eagle Medium + 10% fetal bovine serum (FBS) + 1% penicillin/streptomycin (10,000 U/mL / 10,000 µg/mL, Life Technologies Cat. No. 15140122), together with resazurin (250 µg/mL; 10 µL) and incubated in 37 °C (5% CO2) incubator. The plates were incubated for 96 h during which time the positive control wells change colour from a blue to pink colour. The absorbance of each well was measured using Multiskan Skyhigh Microplate Spectrophotometer (Thermofisher Scientific) at 605 nm. Sparsomycin was used as a control. The IC50 values were determined using a sigmoidal dose-response model with variable slope in GraphPad Prism 8.

[2] = tested on: B. subtilis (ATCC 6633); assay: Antibacterial ProTOX bioassay, B. subtilis; type: cell-based; conditions: Bacillus subtilis, ATCC6633; B. subtilis ATCC 6633, 48 h, 28 °C; read-out: Minimum inhibitory concentration (MIC) B. subtilis
Description: as §1, §2
(§6) 0.1 µg/mL in 2% DMSO for yeasts. Row A served as a control with no test compound (indicating no inhibition), and Row H was left uninoculated (serving as a control for complete inhibition).
(§7) B. subtilis (ATCC 6633), S. aureus (ATCC 25923) and MRSA (ATCC 33592) were used as indicator species for antibacterial activity, employing the ProTOX bioassay platform. A bacterial suspension (50 mL in a 250 mL flask) was prepared in nutrient media by cultivating it for 24 h at 250 rpm and 28 °C. The suspension was diluted to an absorbance of 0.01 absorbance units per mL, and 10 µL aliquots were added to the wells of a 96-well microtitre plate containing the test compounds dispersed in 190 µL of nutrient broth (Amyl) with 10 µL resazurin (12.5 µg/mL). The plates were incubated at 28 °C for 48 h, during which the positive control wells changed colour from blue to light pink. Tetracycline was employed as a control for B. subtilis, while ampicillin was used for S. aureus and MRSA. MIC endpoints were determined visually. Absorbance was measured using a Multiskan Skyhigh Microplate Spectrophotometer (Thermo Fisher Scientific) at 605 nm.

[3] = tested on: MRSA (ATCC 33592); assay: Antibacterial ProTOX bioassay, MRSA; type: cell-based, methicillin-resistant S. aureus; conditions: MRSA ATCC 33592, 48 h, 28 °C; for MIC: Staphylococcus aureus, read-out: Minimum inhibitory concentration (MIC) MRSA
Description: as §1, §2, §6, §7

[4] = tested on: Saccharomyces cerevisiae (ATCC 9763); assay: Antifungal EuTOX bioassay, S. cerevisiae; type: cell-based; conditions: S. cerevisiae ATCC 9763, 48 h; for MIC: Saccharomyces cerevisiae, ATCC9763, read-out: Minimum inhibitory concentration (MIC) S. cerevisiae
Description: as §1, §2, §3, §4
Saccharomyces cerevisiae (ATCC 9763) was used as indicator species for antifungal activity, employing the EuTOX bioassay platform. A yeast suspension (50 mL in a 250 mL flask) was prepared in 1% malt extract broth by cultivating it for 24 h at 250 rpm and 24 °C. The suspension was diluted to absorbances of 0.03 absorbance units per mL and 30 µL were added to the wells of a 96-well microtitre plate containing the test compounds dispersed in 100 µL of malt extract agar with bromocresol green (50 µg/mL). The plates were incubated at 28 °C for 48 h, during which the positive control wells changed colour from blue to yellow. Blasticidin S HCl was used

[5] = tested on: S. aureus (ATCC 25923); assay: Antibacterial ProTOX bioassay, S. aureus; type: cell-based; conditions: Staphylococcus aureus, ATCC25923; S. aureus ATCC 25923, 48 h, 28 °C; read-out: Minimum inhibitory concentration (MIC) S. aureus
Description: as §1, §2, §6, §7

[6] = tested on: NS-1 (ATCC TIB-18) mouse myeloma cells; assay: Cytotoxicity resazurin assay, NS-1 cells; type: cell-based; conditions: for IC50: read-out: IC50 NS-1; for cytotoxicity against NS-1 cells (in words): mouse myeloma NS-1
Description: as §1, §2, §3, §4, §4, §5

[7] = tested on: Saccharomyces cerevisiae (ATCC 9763); conditions: previously reported; cited from earlier work
[8] = neonatal foreskin fibroblast NFF
[9] = NS1, mouse myeloma NS-1 ATCC TIB-18, 96 h

Molecule	IC50 [1, 8] [µg/mL]	cytotoxicity against NFF cells (in words) [1]	MIC [2] [µg/mL]	MIC [3] [µg/mL]	MIC [4] [µg/mL]	MIC [5] [µg/mL]	IC50 [6, 9] [µg/mL]	cytotoxicity against NS-1 cells (in words) [6]	Minimum inhibitory concentration (MIC) MRSA [3] [µg/mL]	Minimum inhibitory concentration (MIC) S. cerevisiae [4] [µg/mL]	IC50 ([1]; Fibroblast) [µg/mL]	IC50 ([6]; Mus musculus, NS1, 96 h) [µg/mL]	antifungal activity against S. cerevisiae (in words) [7]
CCCCCCCCCCCCCCCc1cc(O[C@@H]2O[C@H](CO)[C@H](O)[C@H](O)[C@H]2O)cc(O)c1C(=O)O [1d, Aquastatin D]	> 100	did not exhibit cytotoxicity	3.1 (≈ 5.89 µM)	6.3 (≈ 12 µM)	3.1 (≈ 5.89 µM)	12.5 (≈ 23.7 µM)	> 50	did not exhibit cytotoxicity					
CCCCCCCCCCCCCCCc1cc(O)cc(O)c1C(=O)OC [1e, aquastatin E]	> 100		> 100	> 100	> 200	> 100	> 100						
CCCCCCCCCCCCCCCc1cc(O)cc(O)c1C(=O)O [1f, corticiolic acid]	> 100		0.8 (≈ 2.19 µM)	3.1 (≈ 8.5 µM)	> 200	3.1 (≈ 8.5 µM)	25 (≈ 68.6 µM)						
CCCCCCCCCCCCCc1cc(O[C@@H]2O[C@H](CO)[C@H](O)[C@H](O)[C@H]2O)cc(O)c1C(=O)Oc1cc(C)c(C(=O)O)c(O)c1 [3a, Ariestatin A]	> 100		1.6 (≈ 2.47 µM)	6.3 (≈ 9.71 µM)	> 200	3.1 (≈ 4.78 µM)	> 100						
CCCCCCCCCCCCCc1cc(O)cc(O)c1C(=O)Oc1cc(C)c(C(=O)O)c(O)c1 [3b, Ariestatin B]	> 50		1.6 (≈ 3.29 µM)	12.5 (≈ 25.7 µM)	> 200	12.5 (≈ 25.7 µM)	> 50						
CCCCCCCCCCCCCc1cc(O[C@@H]2O[C@H](CO)[C@H](O)[C@H](O)[C@H]2O)cc(O)c1C(=O)OC [3c, Ariestatin C]	> 100	no activity was detected	> 100	> 100	> 200	> 100	0.2 (≈ 0.39 µM)	cytotoxicity was observed					
CCCCCCCCCCCCCc1cc(O[C@@H]2O[C@H](CO)[C@H](O)[C@H](O)[C@H]2O)cc(O)c1C(=O)O [3d, Ariestatin D]	> 50	did not exhibit cytotoxicity	25 (≈ 50.1 µM)	> 50	3.1 (≈ 6.22 µM)	> 50	> 50	did not exhibit cytotoxicity					
CCCCCC/C=C\CCCCCCCc1cc(O[C@@H]2O[C@H](CO)[C@H](O)[C@H](O)[C@H]2O)cc(O)c1C(=O)Oc1cc(C)c(C(=O)O)c(O)c1 [4a, Capricostatin A]	> 100		1.6 (≈ 2.37 µM)	6.3 (≈ 9.34 µM)	> 200	3.1 (≈ 4.59 µM)	> 100						
CCCCCC/C=C\CCCCCCCc1cc(O)cc(O)c1C(=O)Oc1cc(C)c(C(=O)O)c(O)c1 [4b, Capricostatin B]	> 100		1.6 (≈ 3.12 µM)	12.5 (≈ 24.4 µM)	> 200	12.5 (≈ 24.4 µM)	0.05 (≈ 0.0975 µM)						
CCCCCC/C=C\CCCCCCCc1cc(O[C@@H]2O[C@H](CO)[C@H](O)[C@H](O)[C@H]2O)cc(O)c1C(=O)OC [4c, capricostatin C]	6.3 (≈ 11.7 µM)		> 100	> 100	> 200	> 100	6.3 (≈ 11.7 µM)						
CCCCCC/C=C\CCCCCCCc1cc(O[C@@H]2O[C@H](CO)[C@H](O)[C@H](O)[C@H]2O)cc(O)c1C(=O)O [4d, Capricostatin D]	> 100	did not exhibit cytotoxicity	25 (≈ 47.7 µM)	> 50	3.1 (≈ 5.91 µM)	> 50	> 50	did not exhibit cytotoxicity					
CCCCCC/C=C\CCCCCCCc1cc(O)cc(O)c1C(=O)O [4f, Capricostatin F]	> 100		0.8 (≈ 2.21 µM)	6.3 (≈ 17.4 µM)	> 200	6.3 (≈ 17.4 µM)	0.05 (≈ 0.138 µM)						
CC1(C)S[C@@H]2[C@H](NC(=O)[C@H](N)c3ccccc3)C(=O)N2[C@H]1C(=O)O [ampicillin, reference compound]				> 100		3.1 (≈ 8.87 µM)			>100				
CN(CC[C@H](N)CC(=O)N[C@@H]1C=C[C@@H](n2ccc(N)nc2=O)O[C@H]1C(=O)O)C(=N)N.Cl [blasticidin S HCl, reference compound]										3.1			
Cc1cc(O)cc(O)c1C(=O)O [compound 5, orsellinic acid]	> 100		> 100	> 100	> 200	> 100	> 100						
CCCCCCCCCCCCCCCc1cc(O)cc(O)c1 [compound 6, adipostatin]	6.3 (≈ 19.7 µM)		> 100	25 (≈ 78 µM)	> 200	> 100	6.3 (≈ 19.7 µM)						
CSC[S@+]([O-])C[C@H](CO)NC(=O)/C=C/c1c(C)[nH]c(=O)[nH]c1=O [sparsomycin, reference compound]											1.7 (≈ 4.7 µM)	1.7 (≈ 4.7 µM)	
CN(C)[C@@H]1C(O)=C(C(N)=O)C(=O)[C@@]2(O)C(O)=C3C(=O)c4c(O)cccc4[C@@](C)(O)[C@H]3C[C@@H]12 [tetracycline, reference compound]			6.3 (≈ 14.2 µM)										
geministatin D													displayed antifungal activity
